Experimental data reported in ChEMBL document CHEMBL3124933, “Optimization of brain penetrant 11β-hydroxysteroid dehydrogenase type I inhibitors and in vivo testing in diet-induced obese mice” (J Med Chem, 2014).

Legend:
[1] = Clearance in iv dosed Han Wistar rat; type: ADME, organism-based; conditions: in vivo
[2] = Ratio of total drug level in brain to blood in Han Wistar rat at 30 mg/kg, po measured at 1 hr by LC-MS/MS analysis; type: ADME, organism-based; parameters: dose 30 mg/kg, route oral; conditions: read-out: BBR
[3] = Oral bioavailability in Han Wistar rat; type: ADME, organism-based; conditions: in vivo
physchem = conditions: buffer, pH 7.4
[4] = Apparent permeability from apical to basolateral side in MDCK cells; type: ADME, cell-based, Canis lupus familiaris; conditions: dog
[5] = Ratio of free drug level in brain to blood in diet-induced obese C57B6 mouse model at 4 to 40 mg/kg/day administered through diet for 21 days measured on day 24; type: ADME, organism-based; conditions: po
[6] = Oral bioavailability in Han Wistar rat at 7.4 umol/kg; type: ADME, organism-based; conditions: in vivo
[7] = Volume of distribution at steady state in Han Wistar rat at 5.2 umol/kg, iv; type: ADME, organism-based; conditions: in vivo, read-out: Vdss
[8] = Clearance in Han Wistar rat at 5.2 umol/kg, iv; type: ADME, organism-based; conditions: in vivo
[9] = AUC in C57B6 mouse at 17.6 umol/kg, po; type: ADME, organism-based, Plasma; conditions: whole blood
[10] = Clearance in C57B6 mouse at 3.5 umol/kg, iv; type: ADME, organism-based; conditions: in vivo
[11] = Volume of distribution at steady state in C57B6 mouse at 3.5 umol/kg, iv; type: ADME, organism-based; conditions: in vivo, read-out: Vdss
[12] = Ratio of free drug level in brain to blood in Han Wistar rat at 30 mg/kg, po measured at 1 hr by LC-MS/MS analysis; type: ADME, organism-based; parameters: dose 30 mg/kg, route oral
[13] = Oral bioavailability in C57B6 mouse at 17.6 umol/kg; type: ADME, organism-based; conditions: in vivo
[14] = AUC in Han Wistar rat whole blood at 7.4 umol/kg, po
[15] = Ratio of free drug level in brain to blood in diet-induced obese C57B6 mouse model at 20 mg/kg administered through diet for 21 days measured on day 24; type: ADME, organism-based; parameters: dose 20 mg/kg; conditions: po
[16] = Oral bioavailability in Han Wistar rat at 12.3 umol/kg; type: ADME, organism-based; conditions: in vivo
[17] = AUC in Han Wistar rat at 12.3 umol/kg, po; type: ADME, organism-based, Plasma; conditions: whole blood
[18] = Volume of distribution at steady state in Han Wistar rat at 3.1 umol/kg, iv; type: ADME, organism-based; conditions: in vivo, read-out: Vdss
[19] = Clearance in Han Wistar rat at 3.1 umol/kg, iv; type: ADME, organism-based; conditions: in vivo
[20] = Oral bioavailability in C57B6 mouse at 14.3 umol/kg; type: ADME, organism-based; conditions: in vivo
[21] = AUC in C57B6 mouse at 14.3 umol/kg, po; type: ADME, organism-based, Plasma; conditions: whole blood
[22] = Clearance in C57B6 mouse at 4 umol/kg, iv; type: ADME, organism-based; conditions: in vivo
[23] = Volume of distribution at steady state in C57B6 mouse at 4 umol/kg, iv; type: ADME, organism-based; conditions: in vivo, read-out: Vdss

SMILES | Kp at 1 h [2] | bioavailability [3] [%] | logD (physchem) | also measured
COc1nc([C@H]2CCCO2)c(C(=O)N[C@H]2C3CC4CC2C[C@](O)(C4)C3)s1 | 1.1 | 40 | 2.3 | clearance [1]: 21 mL/min/kg
CN(C)c1nc([C@H]2CCCO2)c(C(=O)N[C@H]2C3CC4CC2C[C@](O)(C4)C3)s1 |  |  | 2.7 | 
COc1ncsc1C(=O)NC1C2CC3CC1CC(O)(C3)C2 (stereo unspecified) |  |  | 1.7 | 
COc1nc(C)sc1C(=O)N[C@H]1C2CC3CC1C[C@](O)(C3)C2 | 1.2 | 23 | 2 | clearance [1]: 22 mL/min/kg
Cc1nc(C)c(C(=O)N[C@H]2C3CC4CC2C[C@](O)(C4)C3)s1 |  |  | 1.3 | 
Cc1nc(C2CC2)c(C(=O)N[C@H]2C3CC4CC2C[C@](O)(C4)C3)s1 | 1.6 | 12 | 1.9 | clearance [1]: 14 mL/min/kg
O=C(N[C@H]1C2CC3CC1C[C@](O)(C3)C2)c1sc(OC2CCOCC2)nc1C1CC1 | 1.2 | 53 | 2.7 | clearance [1]: 21 mL/min/kg
Cc1nc(C(F)(F)F)c(C(=O)N[C@H]2C3CC4CC2C[C@](O)(C4)C3)s1 |  |  | 1.5 | 
CCc1nc([C@H]2CCCO2)c(C(=O)N[C@H]2C3CC4CC2C[C@](O)(C4)C3)s1 |  |  | 2.4 | 
N#CC1CC(Oc2nc([C@H]3CCCO3)c(C(=O)NC3C4CC5CC3CC(O)(C5)C4)s2)C1 (stereo partly specified) |  |  | 2.4 | 
COc1c(C(=O)NC2C3CC4CC2CC(O)(C4)C3)cnn1C (stereo unspecified) | 0.1 | 27 | 0.4 | 
COC[C@H](C)Oc1nc([C@H]2CCCO2)c(C(=O)NC2C3CC4CC2CC(O)(C4)C3)s1 (stereo partly specified) | 0.9 | 16 | 2.8 | clearance [1]: 13 mL/min/kg
CNc1nc([C@H]2CCCO2)c(C(=O)N[C@H]2C3CC4CC2C[C@](O)(C4)C3)s1 |  |  | 2.1 | 
C[C@@H]1CN(c2ncc(C(=O)NC3C4CC5CC3CC(O)(C5)C4)c([C@H]3CCCO3)n2)C[C@H](C)O1 (stereo partly specified) | 0.3 | 35 | 2.3 | Papp A→B [4]: 23 ×10⁻⁶ cm/s
O=C(NC1C2CC3CC1CC(O)(C3)C2)c1scnc1[C@H]1CCCO1 (stereo partly specified) |  | 0 | 1.6 | clearance [1]: 52 mL/min/kg
Cc1nc(OC2CCC2)c(C(=O)NC2C3CC4CC2CC(O)(C4)C3)s1 (stereo unspecified) |  |  | 3.2 | 
O=C(N[C@H]1C2CC3CC1C[C@](O)(C3)C2)c1sc(OC2CCOCC2)nc1[C@H]1CCCO1 | 1.1 |  | 2.6 | Kp uu at 504 h [5]: 0.5; bioavailability [6]: 83%; Vd [7]: 1 L/kg; clearance [8]: 34 mL/min/kg; AUC [9]: 20.6 µM·h; clearance [10]: 26 mL/min/kg; Vd [11]: 1.7 L/kg; Kp uu at 1 h [12]: 0.9; bioavailability [13]: 139%; AUC [14]: 3.9 µM·h
O=C(N[C@H]1C2CC3CC1C[C@](O)(C3)C2)c1sc(O[C@@H]2CCCO2)nc1C1CC1 |  |  | 2.4 | 
CCOc1nc(C)sc1C(=O)N[C@H]1C2CC3CC1C[C@](O)(C3)C2 |  |  | 2.6 | 
COCCOc1nc(C2CC2)c(C(=O)N[C@H]2C3CC4CC2C[C@](O)(C4)C3)s1 | 1.2 | 23 |  | clearance [1]: 27 mL/min/kg
CCOc1nc(C2CC2)c(C(=O)N[C@H]2C3CC4CC2C[C@](O)(C4)C3)s1 |  |  | 2.9 | 

SMILES | Kp at 1 h [2] | bioavailability [3] [%] | logD (physchem) | also measured
O=C(N[C@H]1C2CC3CC1C[C@](O)(C3)C2)c1sc(OCCO)nc1C1CC1 | 0.2 | 25 | 1.6 | clearance [1]: 5 mL/min/kg
O=C(N[C@H]1C2CC3CC1C[C@](O)(C3)C2)c1sc(OCC2CC2)nc1C1CC1 |  |  | 3.6 | 
CS(=O)(=O)Cc1nc([C@H]2CCCO2)c(C(=O)NC2C3CC4CC2CC(O)(C4)C3)s1 (stereo partly specified) | < 0.05 | 65 | 0.4 | clearance [1]: 17 mL/min/kg
O=C(N[C@H]1C2CC3CC1C[C@](O)(C3)C2)c1cncs1 |  |  | 0.8 | 
C[C@@H]1CN(c2ncc(C(=O)NC3C4CC5CC3CC(O)(C5)C4)c(C3CCCC3)n2)C[C@H](C)O1 (stereo partly specified) |  | 70 | 3.6 | Papp A→B [4]: 20 ×10⁻⁶ cm/s
Cc1nc([C@H]2CCCO2)c(C(=O)N[C@H]2C3CC4CC2C[C@](O)(C4)C3)s1 | 1.5 | 11 | 1.8 | clearance [1]: 17 mL/min/kg
COc1nc(C2CC2)c(C(=O)N[C@H]2C3CC4CC2C[C@](O)(C4)C3)s1 | 1.8 | 45 | 2.6 | clearance [1]: 15 mL/min/kg
CC(C)Oc1nc(C2CC2)c(C(=O)N[C@H]2C3CC4CC2C[C@](O)(C4)C3)s1 |  |  | 3.4 | 
N#CC1(COc2nc(C3CC3)c(C(=O)N[C@H]3C4CC5CC3C[C@](O)(C5)C4)s2)CC1 | 0.4 |  | 2.6 | Kp uu at 504 h [15]: 0.2; bioavailability [16]: 79%; AUC [17]: 7.9 µM·h; Vd [18]: 0.6 L/kg; clearance [19]: 16 mL/min/kg; bioavailability [20]: 73%; AUC [21]: 12 µM·h; clearance [22]: 18 mL/min/kg; Kp uu at 1 h [12]: 0.4; Vd [23]: 1 L/kg
COCCOc1nc([C@H]2CCCO2)c(C(=O)NC2C3CC4CC2CC(O)(C4)C3)s1 (stereo partly specified) | 0.8 | 24 | 2.1 | clearance [1]: 8 mL/min/kg
Nc1nc([C@H]2CCCO2)c(C(=O)N[C@H]2C3CC4CC2C[C@](O)(C4)C3)s1 |  |  | 1.7 | 
CCCSc1nc(C)sc1C(=O)N[C@H]1C2CC3CC1C[C@](O)(C3)C2 |  |  | 3.1 | 
COCCc1nc([C@H]2CCCO2)c(C(=O)N[C@H]2C3CC4CC2C[C@](O)(C4)C3)s1 |  |  | 1.8 | 
COC[C@H](C)Oc1nc(C2CC2)c(C(=O)N[C@H]2C3CC4CC2C[C@](O)(C4)C3)s1 |  |  | 2.8 | 
O=C(NC1C2CC3CC1CC(O)(C3)C2)c1cnc(N[C@H]2CCOC2)nc1C1CCCC1 (stereo partly specified) |  | 64 |  | Papp A→B [4]: 3 ×10⁻⁶ cm/s
Cc1nc([C@@H]2CCCO2)c(C(=O)N[C@H]2C3CC4CC2C[C@](O)(C4)C3)s1 |  |  | 1.8 | 
Cc1nc(OCC(F)(F)F)c(C(=O)N[C@H]2C3CC4CC2C[C@](O)(C4)C3)s1 |  |  | 3.1 | 
Cc1nc(OC(C)C)c(C(=O)N[C@H]2C3CC4CC2C[C@](O)(C4)C3)s1 |  |  | 3 | 
COCc1nc([C@H]2CCCO2)c(C(=O)N[C@H]2C3CC4CC2C[C@](O)(C4)C3)s1 |  |  | 1.9 | 
Cc1nc(OC2COC2)c(C(=O)N[C@H]2C3CC4CC2C[C@](O)(C4)C3)s1 |  |  | 1.5 | 
COC[C@@H](C)Oc1nc(C2CC2)c(C(=O)N[C@H]2C3CC4CC2C[C@](O)(C4)C3)s1 |  |  | 2.6 | 
